Data taken from PubChem BioAssay (NCI).
Values joined by “and” are separate entries in the source; they are usually repeats but may differ in a detail not shown here. Equal values may be shown once.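 Where inhibition never reached the appropriate level, the endpoint shown equals the highest concentration tested. Otherwise, values were interpolated linearly from a five-concentration, 48-hour dose response in 96-well plates. GI50 is the concentration that inhibits growth by half. TGI denotes the concentration required for complete inhibition of growth.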

Tests used:
Assay in all cases: NCI-60 cell line screen, 48 h
HCT-116 colon = system: HCT-116 colon
HCT-15 colon = system: HCT-15 colon
HL-60(TB) leukemia = system: HL-60(TB) leukemia
HOP-92 NSCLC = system: HOP-92 NSCLC
NCI-H226 lung = system: NCI-H226 lung
SK-MEL-2 melanoma = system: SK-MEL-2 melanoma
SR leukemia = system: SR leukemia
SW-620 colon = system: SW-620 colon
U251 CNS = system: U251 CNS
UACC-257 melanoma = system: UACC-257 melanoma

Row | Compound | TGI (HCT-116 colon) [µM] | TGI (HCT-15 colon) [µM] | TGI (HL-60(TB) leukemia) [µM] | TGI (HOP-92 NSCLC) | TGI (NCI-H226 lung) [µM] | TGI (SK-MEL-2 melanoma) [µM] | TGI (SR leukemia) | TGI (SW-620 colon) [µM] | TGI (U251 CNS) [µM] | TGI (UACC-257 melanoma) [µM] | GI50 (HCT-116 colon) [µM] | GI50 (HOP-92 NSCLC) [µM] | GI50 (NCI-H226 lung) [µM] | GI50 (SK-MEL-2 melanoma) [µM] | GI50 (SR leukemia) [µM] | GI50 (SW-620 colon) [µM] | GI50 (U251 CNS) [µM]
1 | Cc1ccc(C(=O)c2[nH]c(Nc3cc(C)ccn3)c(C(=S)Nc3ccccc3)c2N)cc1 | > 100 | > 100 | > 100 | > 100 µM | > 100 | > 100 | > 100 µM | > 100 | > 100 | > 100 | – | – | – | – | – | – | –
2 | Cc1cc(C)nc(NS(=O)(=O)c2ccc(Nc3c4ccccc4nc4c(C(=O)N5CCN(CCOS(C)(=O)=O)CC5)ccc(Cl)c34)cc2)n1 | > 100 | > 100 | > 100 | > 100 µM | > 100 | > 100 | > 100 µM | – | > 100 | > 100 | – | – | – | – | – | – | –
3 | O=C(/C=C1\C[C@H]2C=Nc3ccccc3C(=O)N2C1)NCCCCCNC(=O)/C=C1\C[C@H]2C=Nc3ccccc3C(=O)N2C1 | 20.1 | 10.6 | 6.13 | 16.1 µM | > 70.4 | 29.2 | 12.4 µM | 5.93 | 9.05 | 15.7 | – | – | – | – | – | – | –
4 | CCN(C(=O)N[C@H](C(=O)N[C@@H](C)C(=O)OC)C(C)C)c1ccccc1 | 68.6 | > 100 | > 100 | 78.6 µM | > 100 | 78.3 | > 100 µM | > 100 | 86.6 | 41.8 | – | – | – | – | – | – | –
5 | CC[P+](C#Cc1ccccc1)(c1ccccc1)c1ccccc1 | 5.86 | 17.7 | 1.05 | 5.9 µM | 8.69 | 4.3 | 5.73 µM | 10.8 | 4.48 | 4.11 | – | – | – | – | – | – | –
6 | O=c1oc2ccccc2c2nc3ccccc3cc12 | > 100 | > 100 | > 100 | 90.1 µM | > 100 | > 100 | > 100 µM | > 100 | 87.9 | > 100 | – | – | – | – | – | – | –
7 | COn1cc(CO)c2ccccc21 | > 100 | > 100 | > 100 | > 100 µM | 6.35 | > 100 | > 100 µM | > 100 | > 100 | > 70.8 | – | – | – | – | – | – | –
8 | C=C1CC=CC(C)(C)C1C/C=C(\C)C(O)CBr (stereo unspecified) | > 100 | > 100 | > 100 | > 100 µM | > 100 | > 100 | 88.5 µM | 97.4 | > 100 | > 100 | – | – | – | – | – | – | –
9 | CC12CCC(C/C1=N\NC(N)=O)C2(C)C (stereo unspecified) | > 100 | > 100 | > 100 | > 100 µM | > 100 | > 100 | > 100 µM | > 100 | > 100 | > 100 | – | – | – | – | – | – | –
10 | Nc1n[nH]c2ccccc12 | > 100 | > 100 | > 100 | > 100 µM | > 100 | > 100 | > 100 µM | > 100 | > 100 | > 100 | – | – | – | – | – | – | –
11 | CC(C)(C)OC(=O)c1ccc(NCc2cc(O)ccc2O)cc1 | 16.1 | 3.12 | 4.08 | 3.4 µM | 8.64 | 18.8 | > 34.5 µM | 14.5 | 9.32 | 14.9 | – | – | – | – | – | – | –
12 | OC(c1ccco1)C(F)(F)c1nc2ccccc2o1 (stereo unspecified) | > 100 | > 100 | > 100 | > 100 µM | > 100 | > 100 | > 100 µM | > 100 | > 100 | > 100 | – | – | – | – | – | – | –
13 | OCC1OC(O[C@H]2CN3[C@H](O)[C@@H](O)[C@H](O)[C@H]3C2O)C(O)C(O)C1O (stereo partly specified) | > 100 | > 100 | > 100 | > 100 µM | > 100 | > 100 | > 100 µM | > 100 | > 100 | > 100 | – | – | – | – | – | – | –
14 | COC(=O)C(CCSC)NC(=O)CSc1nnc(COc2ccc(Cl)cc2)n1-c1ccccc1 (stereo unspecified) | 30.7 | 39.8 | 38.6 | 34.6 µM | 43.3 | 30.6 | 42.4 µM | 49.7 | 30.9 | 31.2 | – | – | – | – | – | – | –
15 | CC/C=C\C/C=C\C/C=C\CCCCCCCC(=O)OC(COC(=O)CCCCCCCCCCCCCCCCC)COC1OC(CO)C(O)C(O)C1O (stereo unspecified) | > 25 | > 25 | > 25 | > 25 µM | > 25 | > 25 | > 25 µM | > 25 | > 25 | > 25 | – | – | – | – | – | – | –
16 | O=CN(O)CC(=O)O | > 100 | > 100 | > 100 | > 100 µM | > 100 | > 100 | > 100 µM | > 100 | > 100 | > 100 | – | – | – | – | – | – | –
17 | CCOC(=O)C1=C(C)NC(=O)N([N+](=O)[O-])C1c1ccccc1C(F)(F)F (stereo unspecified) | > 100 | > 100 | > 100 | > 100 µM | > 100 | > 100 | > 100 µM | > 100 | > 100 | > 100 | – | – | – | – | – | – | –

Row | Compound | TGI (HCT-116 colon) [µM] | TGI (HCT-15 colon) [µM] | TGI (HL-60(TB) leukemia) [µM] | TGI (HOP-92 NSCLC) | TGI (NCI-H226 lung) [µM] | TGI (SK-MEL-2 melanoma) [µM] | TGI (SR leukemia) | TGI (SW-620 colon) [µM] | TGI (U251 CNS) [µM] | TGI (UACC-257 melanoma) [µM] | GI50 (HCT-116 colon) [µM] | GI50 (HOP-92 NSCLC) [µM] | GI50 (NCI-H226 lung) [µM] | GI50 (SK-MEL-2 melanoma) [µM] | GI50 (SR leukemia) [µM] | GI50 (SW-620 colon) [µM] | GI50 (U251 CNS) [µM]
18 | C(=N/Nc1ccc(-c2nc3ccccc3[nH]2)cc1)/c1c(-c2ccccc2)[nH]c2ccccc12 | 16.8 | > 100 | 1.06 | > 100 µM | 6.47 | 0.794 | 17.1 µM | 75 | 8.69 | > 100 | – | – | – | – | – | – | –
19 | CC(O)(C(=O)N(O)c1ccc(Cl)cc1)c1ccc(Cl)cc1 (stereo unspecified) | 96.1 | 65.7 | 35.9 | 48.3 µM | > 100 | 50.1 | 36.1 µM | > 100 | 64.4 | 65.1 | – | – | – | – | – | – | –
20 | CNc1ccc2c(c1)Cc1ccccc1-2 | > 100 | > 100 | > 100 | 64.1 µM | > 100 | > 100 | 91.2 µM | > 100 | > 100 | > 100 | – | – | – | – | – | – | –
21 | C=C1CC2C(=O)N(c3ccccc3)C(=O)C2CC1n1[nH]c(=O)n(Cc2ccccc2)c1=O (stereo unspecified) | > 100 | > 100 | > 100 | > 100 µM | > 100 | > 100 | > 100 µM | > 100 | > 100 | > 100 | – | – | – | – | – | – | –
22 | Cc1ccc2c(c1)C(=O)/C(=C\c1ccc(Cl)cc1)CCS2(=O)=O | 3.51 | 5.01 | 5.26 | 18.3 µM | 14.2 | 61 | 5.55 µM | 12.1 | 9.09 | 7.23 | – | – | – | – | – | – | –
23 | CC1(C)OC(CCO)CN1C(=O)OCc1ccccc1 (stereo unspecified) | > 100 | > 100 | > 100 | > 100 µM | > 100 | > 100 | > 100 µM | > 100 | > 100 | > 100 | – | – | – | – | – | – | –
24 | NNC(=O)c1cccc2c1Oc1ccccc1S2 | > 100 | > 100 | > 100 | > 100 µM | > 100 | > 100 | > 100 µM | > 100 | > 100 | > 100 | – | – | – | – | – | – | –
25 | O=S1(=O)c2ccccc2NC(=S)N1c1ccccc1 | > 100 | > 100 | > 100 | 45.3 µM | > 100 | > 100 | > 100 µM | > 100 | > 100 | > 89.2 | – | – | – | – | – | – | –
26 | CCC1C(=O)OCc2c1cc1n(c2=O)CCC12OCCO2 (stereo unspecified) | > 100 | > 100 | > 100 | > 100 µM | > 100 | > 100 | > 100 µM | > 100 | > 100 | > 100 | – | – | – | – | – | – | –
27 | O=c1c(Cc2ccccc2)c(-c2ccccc2)[nH]n1C1=NCCN1 | 66.7 | > 100 | > 100 | > 100 µM | > 100 | > 100 | > 100 µM | > 100 | > 100 | > 100 | – | – | – | – | – | – | –
28 | COCC(=O)OC1CCn2c1nc1c2C(=O)C(C)=C(NC(C)=O)C1=O (stereo unspecified) | 10.4 | 30.1 | 3.68 | 2.95 µM and 4.62 µM | 23.5 | 13.5 | 5.17 µM and 12.5 µM | 19.8 | 17.4 | 9.08 | 4.08 | 1.38 | 9.33 | 5.34 | 2.52 | 3.43 | 4.36
29 | COc1ccc(CCCCl)c(C2=NCCc3ccccc32)c1 | > 100 | > 100 | > 100 | > 100 µM | > 100 | > 100 | > 100 µM | > 100 | > 100 | > 100 | – | – | – | – | – | – | –
30 | COP(=O)(CC(=O)C1OC(OCc2ccccc2)C(OCc2ccccc2)C(OCc2ccccc2)C1OCc1ccccc1)OC (stereo unspecified) | > 100 | > 100 | 23.7 | 85.7 µM | 54 | 11 | 21.4 µM | > 100 | > 100 | 43.9 | – | – | – | – | – | – | –
31 | CC(C)(C)c1ccc2c(c1)OCc1n[nH]c(n1)COc1cc(C(C)(C)C)ccc1OCCOCCO2 | 15.5 | 18.3 | > 100 | 14.8 µM | 8.97 | 5.27 | 13 µM | 13.1 | 13.7 | 8 | – | – | – | – | – | – | –
32 | CCOC(=O)Cc1nn2c(=O)cc(C)nc2s1 | > 100 | > 100 | > 100 | > 100 µM | > 100 | > 100 | > 100 µM | > 100 | > 100 | > 100 | – | – | – | – | – | – | –
33 | COc1ccc(/C=N/Nc2nc3ccccc3c(=O)n2-c2ccccc2)c(OCc2ccccc2)c1 | > 100 | > 100 | > 100 | > 100 µM | > 100 | > 100 | > 100 µM | > 100 | > 100 | > 100 | – | – | – | – | – | – | –
34 | O=C(c1ccccc1)[C@H]1Nc2cnccc2C2c3ccccc3CC21 (stereo partly specified) | > 38.4 | 26.9 | 23.2 | 37.4 µM | 20.2 | 29.9 | 61.6 µM | 47.3 | 48.8 | 26.1 | – | – | – | – | – | – | –
